From ChEMBL document CHEMBL1201862, “PubChem BioAssay data set” (2004)
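Briefly, cells in 96-well plates were exposed to five compound concentrations for 48 h, and endpoints were estimated by linear interpolation. Here, GI50 denotes the concentration required for 50% inhibition of growth.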 The source made the active and inactive calls. No stated cut-off is given here; in the data, active = GI50 up to about 1.1 µM and inactive = higher.

Tests used:
Assay in all cases: NCI tumour cell line growth inhibition, 48 h
786-0 = tested on: 786-0
A549 = tested on: A549
CCRF-CEM = tested on: CCRF-CEM
DMS-273 = tested on: DMS-273
HL-60 = tested on: HL-60
K562 = tested on: K562
LOX IMVI = tested on: LOX IMVI
MDA-MB-231 = tested on: MDA-MB-231
MDA-MB-435 = tested on: MDA-MB-435
MOLT-4 = tested on: MOLT-4
NCI-H522 = tested on: NCI-H522
NCI/ADR-RES = tested on: NCI/ADR-RES
OVCAR-4 = tested on: OVCAR-4
OVCAR-5 = tested on: OVCAR-5
SF-539 = tested on: SF-539
SK-OV-3 = tested on: SK-OV-3
SNB-19 = tested on: SNB-19
SR = tested on: SR
UACC-257 = tested on: UACC-257
UACC-62 = tested on: UACC-62

| Structure (SMILES) | GI50 (786-0) | GI50 (A549) | GI50 (CCRF-CEM) | GI50 (DMS-273) | GI50 (HL-60) | GI50 (K562) | GI50 (LOX IMVI) | GI50 (MDA-MB-231) | GI50 (MDA-MB-435) | GI50 (MOLT-4) | GI50 (NCI-H522) | GI50 (NCI/ADR-RES) | GI50 (OVCAR-4) | GI50 (OVCAR-5) | GI50 (SF-539) | GI50 (SK-OV-3) | GI50 (SNB-19) | GI50 (SR) | GI50 (UACC-257) | GI50 (UACC-62) |
| --- | --- | --- | --- | --- | --- | --- | --- | --- | --- | --- | --- | --- | --- | --- | --- | --- | --- | --- | --- | --- |
| N/C(=N\N=C\c1c[nH]c2ccccc12)Nc1ccccc1 | 0.318 µM (active) | 0.455 µM (active) | 0.918 µM (active) | 0.506 µM (active) | 0.144 µM (active) | 0.278 µM (active) | 0.36 µM (active) | 0.624 µM (active) | 0.02 µM (active) | 0.938 µM (active) | 0.0596 µM (active) | 0.148 µM (active) | 1.58 µM (inactive) | 3.13 µM (inactive) | 0.332 µM (active) | 0.418 µM (active) | 0.54 µM (active) | 0.955 µM (active) | 0.304 µM (active) | 0.248 µM (active) |
| BrC12c3ccccc3Sc3ccccc3C1(Br)c1ccccc12 (stereo not drawn) | 34.5 µM (inactive) | 27.7 µM (inactive) | 4.93 µM (inactive) | 36 µM (inactive) | 5.21 µM (inactive) | 22.2 µM (inactive) | 15.8 µM (inactive) | – | – | 10.7 µM (inactive) | 17.5 µM (inactive) | – | 33.1 µM (inactive) | 25.5 µM (inactive) | 18.3 µM (inactive) | 42.1 µM (inactive) | 32.7 µM (inactive) | 11.1 µM (inactive) | 22.3 µM (inactive) | 16.7 µM (inactive) |
| Cc1c(Cl)cccc1NC(=O)C(=O)C1C(=O)NC(=O)NC1=O | > 100 µM (inactive) | > 100 µM (inactive) | > 100 µM (inactive) | > 100 µM (inactive) | > 100 µM (inactive) | > 100 µM (inactive) | > 100 µM (inactive) | – | – | > 100 µM (inactive) | > 100 µM (inactive) | – | > 100 µM (inactive) | > 100 µM (inactive) | > 100 µM (inactive) | > 100 µM (inactive) | > 100 µM (inactive) | > 100 µM (inactive) | > 100 µM (inactive) | > 100 µM (inactive) |
| CCSc1c2ccccc2c(-c2nc(F)nc(F)n2)n1CCc1ccccc1 | > 100 µM (inactive) | > 100 µM (inactive) | 36.2 µM (inactive) | > 100 µM (inactive) | > 100 µM (inactive) | > 100 µM (inactive) | > 100 µM (inactive) | – | – | 56.4 µM (inactive) | > 100 µM (inactive) | – | > 100 µM (inactive) | > 100 µM (inactive) | > 100 µM (inactive) | – | > 100 µM (inactive) | 51.3 µM (inactive) | – | – |
| COCC12CC(CC1=O)C1C2ON2c3ccccc3C(=O)C12c1ccccc1 (stereo not drawn) | > 100 µM (inactive) | > 100 µM (inactive) | 61.2 µM (inactive) | > 100 µM (inactive) | 76.4 µM (inactive) | 63.7 µM (inactive) | – | – | – | 52.5 µM (inactive) | > 100 µM (inactive) | – | 4.9 µM (inactive) | – | > 100 µM (inactive) | > 100 µM (inactive) | > 100 µM (inactive) | 88.1 µM (inactive) | 52 µM (inactive) | 77.4 µM (inactive) |
| CN1CCC(CN2c3ccccc3Sc3ccccc32)CC1 | 14.3 µM (inactive) | 15.1 µM (inactive) | 16.3 µM (inactive) | 13.4 µM (inactive) | 13 µM (inactive) | 13.5 µM (inactive) | 13.5 µM (inactive) | – | – | 15.5 µM (inactive) | 14.9 µM (inactive) | – | 16.3 µM (inactive) | 19.4 µM (inactive) | 14.9 µM (inactive) | 16.5 µM (inactive) | 15.7 µM (inactive) | 14.1 µM (inactive) | 14.6 µM (inactive) | 14.8 µM (inactive) |
| COCCNC(=O)C1C(=O)N(CCOC)C(=O)/C1=N/N (stereo not drawn) | > 100 µM (inactive) | > 100 µM (inactive) | > 100 µM (inactive) | > 100 µM (inactive) | > 100 µM (inactive) | > 100 µM (inactive) | > 100 µM (inactive) | – | – | > 100 µM (inactive) | > 100 µM (inactive) | – | – | – | > 100 µM (inactive) | > 100 µM (inactive) | > 100 µM (inactive) | > 100 µM (inactive) | > 100 µM (inactive) | > 100 µM (inactive) |
| COc1ccc(/C=C2\CCC(C)(CN(C)C)C2=O)cc1Br (stereo not drawn) | 19.6 µM (inactive) | 38.4 µM (inactive) | 37.5 µM (inactive) | 18.2 µM (inactive) | 34.8 µM (inactive) | 27.9 µM (inactive) | 18.2 µM (inactive) | 36.1 µM (inactive) | 24.5 µM (inactive) | 20.3 µM (inactive) | 17 µM (inactive) | 22.3 µM (inactive) | 18.9 µM (inactive) | 37.7 µM (inactive) | 21.5 µM (inactive) | 30.1 µM (inactive) | 23 µM (inactive) | 19.1 µM (inactive) | 19.5 µM (inactive) | 4.03 µM (inactive) |
| COC1C2C[C@@H](O)CCC2C(C(=O)OCCl)C[C@H]1O (stereo partly drawn) | > 100 µM (inactive) | > 100 µM (inactive) | > 100 µM (inactive) | > 100 µM (inactive) | > 100 µM (inactive) | > 100 µM (inactive) | – | – | – | > 100 µM (inactive) | > 100 µM (inactive) | – | > 100 µM (inactive) | – | > 100 µM (inactive) | > 100 µM (inactive) | > 100 µM (inactive) | > 100 µM (inactive) | > 100 µM (inactive) | > 100 µM (inactive) |
| c1csc(C[N+]23CN4CN(CN(C4)C2)C3)c1 | 22.6 µM (inactive) | 30 µM (inactive) | 18.3 µM (inactive) | 18.9 µM (inactive) | 14.7 µM (inactive) | 20 µM (inactive) | – | – | – | 21.6 µM (inactive) | > 100 µM (inactive) | – | 24.3 µM (inactive) | 26.9 µM (inactive) | > 100 µM (inactive) | – | > 100 µM (inactive) | 15.3 µM (inactive) | > 100 µM (inactive) | 22.6 µM (inactive) |
| Cc1ccc(N2C[N+](c3ccccc3)=NC(c3ccccc3)=N2)cc1 | 68.9 µM (inactive) | 66.8 µM (inactive) | 19.6 µM (inactive) | 30.3 µM (inactive) | 33.6 µM (inactive) | 23.2 µM (inactive) | 32.4 µM (inactive) | – | – | 21.3 µM (inactive) | > 10 µM (inactive) | – | 40.1 µM (inactive) | > 100 µM (inactive) | – | – | 39.2 µM (inactive) | 36.4 µM (inactive) | 53.2 µM (inactive) | – |
| O=c1[nH]c(=O)n(C2OC(COP(=O)(O)OP(=O)(O)O)C(O)C2O)cc1F (stereo not drawn) | 0.239 µM (active) | 0.119 µM (active) | 0.817 µM (active) | 0.456 µM (active) | 7.43 µM (inactive) | 0.184 µM (active) | 0.251 µM (active) | – | – | 0.877 µM (active) | 2.48 µM (inactive) | – | 1.23 µM (inactive) | 7 µM (inactive) | 0.594 µM (active) | 3.92 µM (inactive) | 0.743 µM (active) | 1.34 µM (inactive) | 6.11 µM (inactive) | 2.7 µM (inactive) |
| CCOC(=O)N1CCC(=O)C[C@@H]1C/C=C/P1(=O)O[C@H](c2ccccc2)C(C)N1C(C)C (stereo partly drawn) | > 100 µM (inactive) | > 100 µM (inactive) | – | > 100 µM (inactive) | – | > 100 µM (inactive) | – | – | – | > 100 µM (inactive) | > 100 µM (inactive) | – | > 100 µM (inactive) | > 100 µM (inactive) | > 100 µM (inactive) | > 100 µM (inactive) | > 100 µM (inactive) | > 100 µM (inactive) | > 100 µM (inactive) | > 100 µM (inactive) |
| NC1=NC(Cn2nc(-c3ccccc3)c3ccccc3c2=O)=NNC(=O)N1 | > 100 µM (inactive) | > 100 µM (inactive) | > 100 µM (inactive) | > 100 µM (inactive) | – | > 100 µM (inactive) | – | – | – | > 100 µM (inactive) | > 100 µM (inactive) | – | > 100 µM (inactive) | > 100 µM (inactive) | > 100 µM (inactive) | > 100 µM (inactive) | > 100 µM (inactive) | > 100 µM (inactive) | > 100 µM (inactive) | > 100 µM (inactive) |
| CC(C)c1ccc2c(c1)CCC1C(C)(C)[C@@H](O)CC[C@]21C (stereo partly drawn) | 22.5 µM (inactive) | 30.6 µM (inactive) | 27.9 µM (inactive) | 31.8 µM (inactive) | 17.7 µM (inactive) | 24.9 µM (inactive) | 15.1 µM (inactive) | – | – | 22.1 µM (inactive) | 25 µM (inactive) | – | 56.8 µM (inactive) | 18.8 µM (inactive) | 22.3 µM (inactive) | 68.7 µM (inactive) | 52.4 µM (inactive) | 16.5 µM (inactive) | – | 42.3 µM (inactive) |
| COC(=O)CCC(=O)N1CC1C (stereo not drawn) | > 100 µM (inactive) | > 100 µM (inactive) | > 100 µM (inactive) | > 100 µM (inactive) | > 100 µM (inactive) | > 100 µM (inactive) | > 100 µM (inactive) | – | – | > 100 µM (inactive) | > 100 µM (inactive) | – | > 100 µM (inactive) | > 100 µM (inactive) | > 100 µM (inactive) | > 100 µM (inactive) | > 100 µM (inactive) | > 100 µM (inactive) | > 100 µM (inactive) | > 100 µM (inactive) |
